Test system: neuro-2a (mouse neuroblastoma cells)
Assay: Action on neuro-2a: proportion of cells containing outgrown neurites
Format: cell-based
Conditions: mean ± S.D.
Experimental: The effects of the compounds of this invention on neuroblastoma cells were examined by the following method.
Mouse neuro 2a cells in the logarithmic growth period in the Dulbecco's modified Eagle's medium DMEM, containing 100 units/ml of penicillin G sodium and 100 micrograms/ml of streptomycin sulfate]containing 10 % of FCS were seeded in a 48-well plate so that the number of cells was 1,000 cells/well, and cultured for one day in 0.25 ml of the culture fluid in each well in an incubator containing 5 % of carbon dioxide gas in air at 37° C. Then, a 4 % aqueous glutaraldehyde solution in the same amount as a medium (0.25 ml) was added, and the culture fluid was left to stand at room temperature for 2 hours to fix the cells. After washing with water, a 0.05 % aqueous solution of methylene blue was added to stain the cells Under a microscope, the number of cells containing outgrown neurites (cells having at least one neurite with a length of at least two times as large as the long diameter of the cell) was counted visually, and the proportion of these cells in the entire cells was calculated. The well was observed over 5 or more visual fields (at least 2 % of the entire surface area of the well) continuous to the left and right from a mark put at the center of the well, and more than 200 cells was counted. One drug compound was used in 6 different concentrations at most, and three runs were conducted for each concentrations.

Compound	Number of cells having neurites with a length at least two times the diameter of each cell/total number of cells (0.01 mM)	Number of cells having neurites with a length at least two times the diameter of each cell/total number of cells (0.03 mM)	Number of cells having neurites with a length at least two times the diameter of each cell/total number of cells (0.1 mM)	Number of cells having neurites with a length at least two times the diameter of each cell/total number of cells (0.3 mM)	Number of cells having neurites with a length at least two times the diameter of each cell/total number of cells (1 mM)
CN(C(=O)c1ccccc1)c1ccnc(N2CCC(c3ccc([N+](=O)[O-])cc3)CC2)n1 [Compound 2076]	4.8 ± 1.4%	1.9 ± 1.3%			
CN(C(=O)c1ccccc1)c1ccnc(N2CCC(c3ccccc3)CC2)n1 [Compound 166]			36.8 ± 7.1%	13.4 ± 4.0%	
CN1CCN(C(=O)N(C)c2ccnc(N3CCC(c4ccccc4)CC3)n2)CC1 [Compound 2234]		5.1 ± 3.2%	5.7 ± 2.8%		
CNc1nc(N2CCCc3ccccc32)ncc1C [Compound 1102]			11.9 ± 0.7%	10.1 ± 3.0%	
CN(C(=O)c1ccccc1)c1ccnc(N2CCC(c3ccccc3)CC2)n1 [Compound 165]			41.0 ± 0.7%	12.4 ± 1.8%	
CN(C(=O)c1ccccc1)c1ccnc(N(Cc2ccccc2)Cc2ccccc2)n1 [Compound 2108]		4.8 ± 2.0%			13.5 ± 0.1%
CN(C)C(=O)N(C)c1ccnc(N2CCC(c3ccccc3)CC2)n1 [Compound 2294]		3.7 ± 0.9%	8.1 ± 1.6%		
CCOC(=O)C1CCN(c2nccc(N(C)C(=O)c3ccccc3)n2)CC1 [Compound 2100]		4.4 ± 0.8%	4.7 ± 1.4%		
CCOC(=O)c1cnc(N2CCCCC2)nc1CSC [Compound 816]		4.7 ± 2.1%	4.0 ± 0.3%		
CN(C(=O)c1ccc([N+](=O)[O-])cc1)c1nccc(N2CCC(c3ccccc3)CC2)n1 [Compound 676]				6.0 ± 1.1%	4.2 ± 2.1%
CN1C(=O)Cc2cnc(N3CCN(C(c4ccccc4)(c4ccccc4)c4ccccc4)CC3)nc21 [Compound 3300]				6.1 ± 1.2%	7.8 ± 1.0%
CN1C(=O)Cc2cnc(N3CCN(C4c5ccccc5-c5ccccc54)CC3)nc21 [Compound 3200]	2.7 ± 0.7%				
CNc1ccnc(N2CCc3ccccc3C2)n1 [Compound 1038]		2.2 ± 0.4%	2.9 ± 0.3%		
CC1CCN(c2nccc(N(C(=O)c3ccccc3)c3ccccc3)n2)CC1.Cc1ccc(S(=O)(=O)O)cc1 [Compound 150]		9.3 ± 1.9%	13.6 ± 1.2%	6.6 ± 3.0%	
CN(C(=O)c1ccccc1)c1ccnc(N2CCC(c3ccccc3)CC2)n1 [Compound 167]			22.5 ± 3.4%	9.3 ± 2.3%	
CN(C(=O)c1ccccc1)c1ccnc(N2CCC(N3CCCCC3)CC2)n1 [Compound 2052]	4.6 ± 2.1%	3.7 ± 0.4%			
CN(C(=O)c1ccccc1)c1ccnc(N2CCC(c3ccccc3)CC2)n1 [Compound 171]			37.1 ± 1.9%	8.8 ± 2.6%	

— US5147876A, “2,6-di,2,4,6-, 2,5,6-tri and 2,4,5,6-tetra-substituted pyrimidines, their pharmaceutically acceptable salts, pharmaceutical compositions containing same and their use in the treatment of neurological diseases” (Mitsui Petrochemical Industries, Ltd., priority 1988, dated 1992)
